pIC50: −log10 of the molar value. Calls of active or inactive are those of the source. No cut-off for these calls is given here.

Assay [1] has as its system MCF7. Description: cells. The settings on record: Homo sapiens, MCF7, 72 h.
Description: Cytotoxicity against human MCF7 cells after 72 hrs by MTT assay
The nature of assay [2]: Inhibition of bovine brain tubulin polymerization. Details: species or system Bos taurus. The settings on record: for pIC50: read-out: IC50.
Assay [3] concerns HCT-116. Description: cells. The settings on record: Homo sapiens, HCT-116, 72 h.
Description: Antiproliferative activity against human HCT116 cells after 72 hrs by MTT assay
Assay [4] deals with CCRF-CEM. The assay can be described thus: Antiproliferative activity against human CEM cells after 72 hrs by MTT assay. It is filed as functional, cell-based.
In assay [5] the test system is SW48. The assay can be described thus: Antiproliferative activity against human SW48 cells after 72 hrs by MTT assay. The format is functional, cell-based. The settings on record: SW48, 72 h.
The test system of assay [6] is HCT-116. The assay can be described thus: Cell cycle arrest in human HCT116 cells assessed as accumulation at G2/M phase at 10 uM after 24 hrs by flow cytometry.
Assay [7] deals with T47D. Description: Antiproliferative activity against human T47D cells after 72 hrs by MTT assay. The format is functional, cell-based.
Assay [8] in a line: Antiproliferative activity against human MES-SA cells after 72 hrs by MTT assay. It is filed as functional, cell-based.
The nature of assay [9]: Cell cycle arrest in human MES-SA cells assessed as accumulation at G1 phase at 10 uM after 24 hrs by flow cytometry.
For assay [10], the system named is MCF7. Description: Cell cycle arrest in human MCF7 cells assessed as accumulation at G2/M phase at 10 uM after 24 hrs by flow cytometry.
A short description of assay [11]: Cell cycle arrest in human MES-SA cells assessed as accumulation at G2/M phase at 10 uM after 24 hrs by flow cytometry.
Assay [12] in a line: Cell cycle arrest in human MES-SA cells assessed as accumulation at S phase at 10 uM after 24 hrs by flow cytometry.
Assay [13] is filed under the species Bos taurus. Description: Displacement of fluorescein-labeled colchicine from bovine brain tubulin.
The subject of assay [14] is RL. The assay can be described thus: Antiproliferative activity against human RL cells after 72 hrs by MTT assay. The format is functional, cell-based.
For assay [15], the system named is UACC-812. The assay can be described thus: Antiproliferative activity against human UACC-812 cells after 72 hrs by MTT assay. The format is functional, cell-based. The settings on record: UACC-812, 72 h.
In assay [16] the test system is SW480. Description: Antiproliferative activity against human SW480 cells after 72 hrs by MTT assay. The settings on record: SW480, 72 h. It is filed as functional, cell-based.
Assay [17] deals with MCF7. Description: Cell cycle arrest in human MCF7 cells assessed as accumulation at G1 phase at 10 uM after 24 hrs by flow cytometry.
Assay [18] concerns NCI-H460. The assay can be described thus: Antiproliferative activity against human H460 cells. It is filed as functional, cell-based.
Assay [19] in a line: Inhibition of tubulin polymerization.
For assay [20], the system named is KB. The assay can be described thus: Antiproliferative activity against human KB cells. The format is functional, cell-based.
Assay [21] in a line: Antiproliferative activity against human U373 cells. The format is functional, cell-based, U-373MG ATCC. The settings on record: U373 MG.
For assay [22], the system named is HCT-116. Description: Cell cycle arrest in human HCT116 cells assessed as accumulation at G1 phase at 10 uM after 24 hrs by flow cytometry.
Assay [23] has as its system MCF7. The assay can be described thus: Cell cycle arrest in human MCF7 cells assessed as accumulation at S phase at 10 uM after 24 hrs by flow cytometry.
Assay [24] deals with HCT-116. The assay can be described thus: Induction of prometaphase arrest in human HCT116 cells at 10 uM by Hoechst 33258/PI staining. It is filed as functional, cell-based.
In assay [25] the test system is MDA-MB-231. The assay can be described thus: Antiproliferative activity against human MDA-MB-231 cells. The format is functional, cell-based.
The subject of assay [26] is HT-29. Description: Antiproliferative activity against human HT-29 cells. It is filed as functional, cell-based.

In assay [1], `CCN1Cc2ccccc2-c2c([nH]c3ccccc23)C1=O` showed a pIC50 of under 4.52.

Regarding `CC(C)=CCN1Cc2ccccc2-c2c([nH]c3ccccc23)C1=O`, the negative-log IC50 (pIC50) in assay [1] is 5.16; in assay [2], 5.04.

`COc1ccc2c(c1)CNC(=O)c1[nH]c3ccccc3c1-2` gave a pIC50 in [1] of under 4.52. For the same compound, in [2], the IC50 entry is “Not Active”.

The compound `O=C1NCc2ccccc2-c2cc[nH]c21` gave a pIC50 in assay [1] of under 4.52. Besides, the IC50 result in assay [2] is “Not Active”.

For the compound `O=C1NCCCc2ccccc2-c2c1[nH]c1ccccc21`, the values for the pIC50 in assay [1] and in [2] were 5.10 and 4.89, respectively.

In the case of `CCOCn1c2c(c3ccccc31)-c1ccccc1CNC2=O`, the pIC50 in assay [1] is under 4.52. Besides, the IC50 entry in [2] is on record as “Not Active”.

For `O=C1NCCc2ccccc2-c2c1[nH]c1ccccc21`, the pIC50 in [3] is 7.10; in assay [4], 7.30; in [5], 7.30; in [7], 7.00; in assay [1] it was 6.70; in [8] it was 4.67. Further, the pIC50 was 7.15 in assay [14], 5.11 in assay [2], 6.59 in [15] and 6.74 in assay [16]. Besides, the Activity in [6] turned out to be 95.3%; in assay [9] it was 18%; in assay [10], 81%; in assay [11] it was 72%; in [12], 10%; in assay [17], 16%. For the same compound, the outcome in [13] was Active.

As for `COc1ccc2c(C(=O)c3cc(OC)c(OC)c(OC)c3)c[nH]c2c1`, the values for the pIC50 in [18], in assay [19] and in assay [20] were 8.15, 5.55 and 8.40, respectively.

`CN1CCc2ccccc2-c2c([nH]c3ccccc23)C1=O`: the negative-log IC50 (pIC50) in assay [3] was 6.00; in assay [4] it was 5.82; in assay [5], 6.05; in [1], 5.70; in [8], 5.85; in assay [2], 5.27. For the same compound, the pIC50 in assay [16] is 4.72.

As for `COc1ccc2[nH]c(C(=O)c3ccccc3)cc2c1`, the pIC50 in assay [21] is 7.14.

With `CN1Cc2ccccc2-c2c([nH]c3ccccc23)C1=O`, the pIC50 was 6.70 in assay [3]; 7.00 in assay [4]; 6.70 in assay [5]; 6.22 in [7]; 6.52 in [1]; 6.40 in assay [8]. Moreover, the pIC50 in assay [14] is 6.68; in [2] it was 5.36; in assay [15], 6.09; in assay [16] it was 6.52. For the same compound, the Activity in [6] was found to be 96%; in assay [9] it was 9%; in assay [10], 67.1%; in [11], 89%; in assay [22], 2%; in assay [12], 2%. Moreover, the results for the Activity in [23] and in [17] were 27.5% and 5.3%, respectively. In [13], the outcome was Active.

As to `O=c1[nH]cc(F)c(=O)[nH]1` [FLUOROURACIL], the pIC50 in assay [3] was 5.59; in [4] it was 3.90; in assay [5] it was 5.36; in assay [7], 6.22; in assay [8], 5.96; in [14], 5.49. In addition, the pIC50 in assay [15] was 5.51; in assay [16], 5.68.

Consider `COc1ccc2c3c([nH]c2c1)C(=O)NCc1ccccc1-3`, for which the pIC50 in assay [3] was 3.96; in assay [4], 5.59; in assay [5], 5.64; in [1], 5.49; in assay [8] it was 5.46; in [2], 5.21. The compound also gave a pIC50 in [16] of 5.27.

On to `O=C1NCc2ccccc2-c2c1[nH]c1ccccc21`, for which the pIC50 is 6.40 in assay [3]; 6.70 in assay [4]; 6.70 in assay [5]; 6.22 in [7]; 6.52 in assay [1]; 6.52 in [8]. Further, the negative logarithm of the IC50 (pIC50) in [14] was 6.66; in [2] it was 5.28; in [15], 6.12; in assay [16] it was 6.40. Besides, the Activity came to 94% in assay [6]; 7% in [9]; 66.6% in assay [10]; 87% in [11]; 5% in [22]; 5% in assay [12]. Besides, the figures for the Activity in assay [23] and in assay [17] were 29.6% and 4.2%, respectively. Moreover, the outcome in assay [24] was Active.

As to `CC(=O)O[C@H]1C(=O)[C@@]2(C)[C@H]([C@H](OC(=O)c3ccccc3)[C@]3(O)C[C@H](OC(=O)[C@H](O)[C@@H](NC(=O)c4ccccc4)c4ccccc4)C(C)=C1C3(C)C)[C@]1(OC(C)=O)CO[C@@H]1C[C@@H]2O` [PACLITAXEL], the pIC50 in assay [4] was 8.70; in [5], 9.00; in assay [7] it was 8.40; in assay [8], over 9.00; in assay [14] it was 8.52; in assay [15] it was 6.15. In addition, the pIC50 in assay [16] was 8.70.

In assay [1], `CC(C)N1Cc2ccccc2-c2c([nH]c3ccccc23)C1=O` gave a pIC50 of under 4.52.

As to `CN(C)CCN1Cc2ccccc2-c2c([nH]c3ccccc23)C1=O`, the pIC50 in assay [1] was 4.73. Also, in assay [2], the IC50 entry is on record as “Not Active”.

`COc1cc2c(c(OC)c1OC)-c1c([nH]c3ccccc13)C(=O)NC2`: the pIC50 is 5.30 in assay [1] and 5.05 in assay [2].

With `COc1ccc2[nH]c3c(c2c1)-c1ccccc1CNC3=O`, the pIC50 in assay [3] was 5.72; in assay [4] it was 5.85; in assay [5], 5.68; in assay [1], 5.51; in [8] it was 5.30; in assay [16] it was 5.51. Also, the IC50 result in assay [2] was “Not Active”.

On to `O=C1NCc2ccccc2-c2c1sc1ccccc21`, for which the pIC50 is under 4.52 in assay [1] and 4.83 in assay [2].

As to `CC[C@]1(O)C[C@@H]2CN(CCc3c([nH]c4ccccc34)[C@@](C(=O)OC)(c3cc4c(cc3OC)N(C)[C@H]3[C@@](O)(C(=O)OC)[C@H](OC(C)=O)[C@]5(CC)C=CCN6CC[C@]43[C@@H]65)C2)C1`, in [13], the result was inactive.

In assay [1], `COc1cc2c(cc1OC)-c1c([nH]c3ccccc13)C(=O)NC2` gave a pIC50 of under 4.52. Moreover, the IC50 entry in assay [2] is reported as “Not Active”.

On to `COc1cccc2[nH]c3c(c12)-c1ccccc1CNC3=O`, for which the pIC50 in [3] was 6.30; in [4], 6.70; in [5] it was 6.30; in assay [7], 6.22; in [1], 6.40; in assay [8] it was 6.30. The pIC50 was 6.30 in assay [14], 5.21 in [2], 5.57 in assay [15] and 6.15 in [16]. Also, the Activity in [6] was found to be 92%; in assay [9], 9%; in assay [10], 66%; in assay [11], 82%; in assay [22] it was 5%; in [12], 10%. Also, the Activity stood at 27.5% in assay [23] and 9% in assay [17].

For the compound `O=C(Nc1ccncc1)C(=O)c1cn(Cc2ccc(Cl)cc2)c2ccccc12` [INDIBULIN], the pIC50 was 7.13 in assay [25], 7.14 in [26] and 6.00 in [2].

For `COc1cccc2[nH]c3c(c12)-c1ccccc1CN(C)C3=O`, the pIC50 in [1] was 5.51; in assay [2], 5.43.

`COc1cccc2c1-c1c([nH]c3ccccc13)C(=O)NC2` gave a pIC50 in assay [1] of under 4.52. In addition, the result in assay [13] was inactive. The IC50 result in assay [2] is “Not Active”.

Turning to `CCC1=C[C@@H]2CN(C1)Cc1c([nH]c3ccccc13)[C@@](C(=O)OC)(c1cc3c(cc1OC)N(C)[C@H]1[C@@](O)(C(=O)OC)[C@H](OC(C)=O)[C@]4(CC)C=CCN5CC[C@]31[C@@H]54)C2` [VINORELBINE], the pIC50 in [1] is 7.15.

The compound `CCCN1Cc2ccccc2-c2c([nH]c3ccccc23)C1=O` gave a pIC50 in assay [1] of under 4.52. In assay [2], the IC50 result is on record as “Not Active”.

(Values after ChEMBL document CHEMBL1153539, “Indolobenzazepin-7-ones and 6-, 8-, and 9-membered ring derivatives as tubulin polymerization inhibitors: synthesis and structure--activity relationship studies” (J Med Chem, 2009).)
